TGI and GI50 data for 14 molecules are collected here from PubChem BioAssay (NCI).

Some test systems named below: DU-145 prostate; HCT-15 colon; HS 578T breast; HT29 colon; KM12 colon; M14 melanoma; MDA-MB-231 breast; MOLT-4 leukemia; UACC-62 melanoma; SNB-75 CNS.
Test in all cases: DTP human tumour cell line panel, 48 h

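Assay format: 96-well plates, 48-hour exposure. GI50 marks 50% less growth. TGI is the concentration that stops growth completely.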

Broadly, the TGI is the concentration giving total growth inhibition. High values mean lower sensitivity of the cells, low ones greater sensitivity of the cells. For `CO[C@H]1SC[C@H](OC(C)=O)[C@H](OC(C)=O)[C@H]1OC(C)=O`, the TGI in the assay on DU-145 prostate, with HCT-15 colon, in the assay on HS 578T breast, in the assay with HT29 colon, in the assay on KM12 colon and with M14 melanoma was > 100 µM each time. Besides, the TGI in the assay with MDA-MB-231 breast, in the assay on MOLT-4 leukemia and in the assay on UACC-62 melanoma was > 100 µM throughout.

For `CS(=O)(=O)CSCSSCS(C)(=O)=O`, the total growth inhibition concentration (TGI) in the assay with HCT-15 colon was > 84.8 µM; in the assay with HT29 colon it was > 100 µM; in the assay with KM12 colon, > 100 µM; in the assay on M14 melanoma it was 40.8 µM; in the assay with MOLT-4 leukemia it was > 82.9 µM; in the assay with SNB-75 CNS, > 100 µM. This molecule gave a TGI with UACC-62 melanoma of 47 µM.

With `O=C(N/N=C(/CCN1CCCC1)CC(c1ccccc1)c1c(O)c2ccccc2oc1=O)c1ccncc1` (stereo unspecified), the TGI with HCT-15 colon, in the assay with HT29 colon, with KM12 colon, in the assay with M14 melanoma, in the assay on SNB-75 CNS and with UACC-62 melanoma was > 100 µM in each case.

As for `COc1ccc(Nc2nc(N)c(C(=O)c3c[nH]c4ccccc34)s2)cc1`, the TGI was 10.2 µM in the assay with DU-145 prostate; 8.91 µM with HCT-15 colon; 4.57 µM with HT29 colon; 26.1 µM in the assay on KM12 colon; 16.4 µM with M14 melanoma; > 100 µM in the assay on MDA-MB-231 breast. In addition, the TGI in the assay on MOLT-4 leukemia was 20.9 µM; with SNB-75 CNS it was 6.56 µM; in the assay on UACC-62 melanoma, > 100 µM.

`Cc1ccc(C(=O)N/N=C(\N=Nc2ccccc2)c2ccc(N(C)C)cc2)cc1`: the TGI with DU-145 prostate, in the assay on HCT-15 colon, in the assay with HT29 colon, in the assay on KM12 colon, with M14 melanoma and in the assay on MDA-MB-231 breast was > 100 µM each time. Further, the TGI in the assay with MOLT-4 leukemia and in the assay with UACC-62 melanoma was > 100 µM each time.

`CCC1=C(C(C)=O)[C@@H]2CCCCC[C@@H](C(=O)OC)C2C1=O` (stereo partly specified): the TGI with HCT-15 colon, in the assay on HT29 colon, in the assay with KM12 colon, in the assay on M14 melanoma, in the assay on MOLT-4 leukemia and in the assay with SNB-75 CNS was > 100 µM each time. Also, the TGI in the assay with UACC-62 melanoma was > 100 µM.

In general, GI50 refers to the concentration that inhibits growth by half. Turning to `COC(=O)C1CCc2sc3ncnc(Nc4cn[nH]c4C(=O)Nc4ccc(CN5CCN(C)CC5)cc4)c3c21` (stereo unspecified), the 50% growth inhibitory concentration (GI50) in the assay on HCT-15 colon is 0.423 µM; in the assay with HS 578T breast, 0.54 µM; with HT29 colon, 0.619 µM; in the assay on KM12 colon it was 0.207 µM; in the assay on M14 melanoma, 0.708 µM; with MOLT-4 leukemia, 0.324 µM. Besides, the concentration for 50% growth inhibition (GI50) is 0.0684 µM in the assay on SNB-75 CNS and 1.36 µM in the assay with UACC-62 melanoma. Besides, the TGI in the assay on HCT-15 colon is > 100 µM; in the assay with HS 578T breast, 12.7 µM; in the assay with HT29 colon, 2.91 µM; in the assay on KM12 colon, 2.63 µM; with M14 melanoma, 2.14 µM; in the assay on MOLT-4 leukemia, 0.991 µM. Further, the TGI with SNB-75 CNS was 2.87 µM; in the assay with UACC-62 melanoma, 6.59 µM.

As for `CC1(C)OCC2OC3([C@@H]4OC(C)(C)O[C@H]4CO)OC(C)(C)OC3C2O1` (stereo partly specified), the concentration for total growth inhibition (TGI) in the assay on DU-145 prostate, in the assay with HCT-15 colon, with KM12 colon, with M14 melanoma, with MDA-MB-231 breast and in the assay with MOLT-4 leukemia was > 100 µM in each case. The TGI in the assay on SNB-75 CNS and in the assay with UACC-62 melanoma was > 100 µM in each case.

As to `COc1cc2cc(C(=O)N3C[C@H](CCl)c4c3cc(N)c3ccccc43)[nH]c2c(OC)c1OC`, the GI50 in the assay with DU-145 prostate is < 0.005 µM; with HT29 colon, 0.005 µM; with KM12 colon it was 0.0115 µM; with M14 melanoma, 0.005 µM; in the assay on MDA-MB-231 breast, 0.005 µM; with SNB-75 CNS it was 0.0123 µM. Also, the TGI was < 0.005 µM with DU-145 prostate; > 50 µM with HCT-15 colon; 0.615 µM with HT29 colon; 0.0922 µM in the assay with KM12 colon; 0.0137 µM in the assay on M14 melanoma; 0.0254 µM in the assay with MDA-MB-231 breast. For the same molecule, the figures for the TGI in the assay on MOLT-4 leukemia and with SNB-75 CNS were 0.246 µM and 0.0458 µM, respectively.

Consider `CCCCC1=C(C(=O)N2CCOCC2)C2(OCCO2)C1=O`, for which the concentration for total growth inhibition (TGI) was > 100 µM in the assay with DU-145 prostate; 40.3 µM in the assay with HCT-15 colon; > 100 µM in the assay on HS 578T breast; 45.1 µM in the assay with HT29 colon; 55.9 µM in the assay on KM12 colon; 43.8 µM with M14 melanoma. The total growth inhibition concentration (TGI) was > 100 µM in the assay with MOLT-4 leukemia, > 100 µM with SNB-75 CNS and 94.8 µM in the assay with UACC-62 melanoma.

For `CCCCOc1ccc(OCCCCCCCCCC[N+](C)(C)C)cc1`, the total growth inhibition concentration (TGI) worked out at 30.5 µM in the assay with HCT-15 colon; 2.46 µM in the assay with HT29 colon; 2.97 µM with KM12 colon; 3.27 µM in the assay with MOLT-4 leukemia; 6.44 µM with SNB-75 CNS; 15.7 µM in the assay with UACC-62 melanoma.

With `O=S(=O)(O)c1ccc(N=Nc2ccc(N=Nc3ccc(/C=C/c4ccc(N=[N+]([O-])c5ccc(/C=C/c6ccc(N=Nc7ccc(N=Nc8ccc(S(=O)(=O)O)cc8)cc7)cc6S(=O)(=O)O)c(S(=O)(=O)O)c5)cc4S(=O)(=O)O)c(S(=O)(=O)O)c3)cc2)cc1`, the TGI in the assay with HCT-15 colon, in the assay with HT29 colon, with KM12 colon, with MOLT-4 leukemia, in the assay on SNB-75 CNS and with UACC-62 melanoma was > 100 µM throughout.

`Cc1cc(C)nc(NS(=O)(=O)c2ccc(Nc3c4ccccc4nc4c(C(=O)N5CCN(CCOS(C)(=O)=O)CC5)cccc34)cc2)n1`: the TGI with HCT-15 colon, in the assay on HT29 colon, with KM12 colon, in the assay with M14 melanoma, with MOLT-4 leukemia and in the assay on SNB-75 CNS was > 100 µM throughout. In addition, the concentration for total growth inhibition (TGI) in the assay with UACC-62 melanoma was > 100 µM.

Regarding `C=C1C(OC2O[C@@H]3O[C@@]4(C)CC[C@H]5[C@H](C)CC[C@@H](C2=C)[C@@]35O4)O[C@@H]2O[C@@]3(C)CC[C@H]4[C@H](C)CC[C@@H]1[C@@]24O3` (stereo partly specified), the TGI with DU-145 prostate, in the assay with HCT-15 colon, with HS 578T breast, in the assay with HT29 colon, in the assay on KM12 colon and with M14 melanoma was > 50 µM throughout. The TGI in the assay with MDA-MB-231 breast, with MOLT-4 leukemia and in the assay on UACC-62 melanoma was > 50 µM in each case.
